The results in this text go back to article doi:10.1101/2025.02.20.639278v1, “Discovery of inhibitors for bacterial Arr enzymes ADP-ribosylating and inactivating rifamycin antibiotics” (biorxiv, 2025).

Assay [1] has as its target T1, PaArr (Pseudomonas aeruginosa, UniProt O87490).
T1 construct: gene arr-2; class 1 integron gene; codon-optimized; His6-MBP tag cut off with TEV; E. coli BL21(DE3); monomer
The assay can be described thus: fluorescent NAD+ conversion assay. It counts as biochemical.

For the next assay, the target named is T2, MsArr (Mycolicibacterium smegmatis, UniProt A0QRS5, V47I/Y72F).
T2 construct: gene MSMEG_1221; V47I Y72F variant gene; His6-MBP tag cut off with TEV; E. coli BL21(DE3)
Nature of the assay: fluorescent NAD+ conversion assay. The format is biochemical.

Assay [2] addresses T3, MaArr (Mycobacteroides abscessus, UniProt B1MH05).
T3 construct: gene MAB_0591; chromosomal gene; codon-optimized; His6-MBP tag cut off with TEV; E. coli BL21(DE3)
The assay can be described thus: fluorescent NAD+ conversion assay. It counts as biochemical.

The test system of a further assay is T4, SmArr.
T4 construct: gene arr; class 1 integron gene; codon-optimized; His6-MBP tag cut off with TEV; E. coli BL21(DE3)
The assay can be described thus: fluorescent NAD+ conversion assay. It counts as biochemical, Stenotrophomonas maltophilia. The settings on record: 1 µM NAD+, 2 µM rifampicin, 50 mM PIPES pH 7.5, 0.01% Triton X-100, room temperature.

Assay [3] deals with T1, PaArr. The assay can be described thus: fluorescent NAD+ conversion assay. It counts as biochemical. This is another data set of the same source.
For a further assay, the target named is T5, TNKS2 (Homo sapiens, UniProt Q9H2K2).
T5 sequence (Q9H2K2 1-1166): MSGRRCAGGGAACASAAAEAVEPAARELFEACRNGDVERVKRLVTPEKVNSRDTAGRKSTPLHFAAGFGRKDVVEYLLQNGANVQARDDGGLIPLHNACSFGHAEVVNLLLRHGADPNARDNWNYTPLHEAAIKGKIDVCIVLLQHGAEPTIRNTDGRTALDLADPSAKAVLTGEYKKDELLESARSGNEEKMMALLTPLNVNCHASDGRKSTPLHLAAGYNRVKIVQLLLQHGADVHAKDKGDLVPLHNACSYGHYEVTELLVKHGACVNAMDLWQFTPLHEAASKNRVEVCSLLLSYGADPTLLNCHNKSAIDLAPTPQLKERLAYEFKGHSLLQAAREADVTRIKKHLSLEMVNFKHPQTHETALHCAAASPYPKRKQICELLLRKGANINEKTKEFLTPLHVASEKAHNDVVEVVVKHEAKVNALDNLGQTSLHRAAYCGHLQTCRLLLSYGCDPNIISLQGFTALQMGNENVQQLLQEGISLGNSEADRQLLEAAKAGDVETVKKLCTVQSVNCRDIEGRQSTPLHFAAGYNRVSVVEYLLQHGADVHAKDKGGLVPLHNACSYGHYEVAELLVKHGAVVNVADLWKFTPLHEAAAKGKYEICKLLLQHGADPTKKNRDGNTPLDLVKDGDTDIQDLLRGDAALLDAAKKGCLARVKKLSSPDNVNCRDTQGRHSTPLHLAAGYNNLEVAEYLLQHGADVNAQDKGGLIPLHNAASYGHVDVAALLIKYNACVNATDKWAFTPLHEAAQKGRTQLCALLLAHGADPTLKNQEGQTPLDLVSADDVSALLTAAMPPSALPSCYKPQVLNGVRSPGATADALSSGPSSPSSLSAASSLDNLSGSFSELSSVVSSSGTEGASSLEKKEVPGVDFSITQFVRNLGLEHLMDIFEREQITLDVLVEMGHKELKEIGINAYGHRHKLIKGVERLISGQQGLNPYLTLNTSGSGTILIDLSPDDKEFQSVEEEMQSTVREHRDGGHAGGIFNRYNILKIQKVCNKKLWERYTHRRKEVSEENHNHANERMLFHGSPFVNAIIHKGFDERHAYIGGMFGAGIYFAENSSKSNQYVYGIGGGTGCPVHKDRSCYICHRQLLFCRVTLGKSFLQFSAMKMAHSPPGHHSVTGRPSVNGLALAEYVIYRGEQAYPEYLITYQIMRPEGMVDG
The assay can be described thus: human ADP-ribosyltransferase activity panel. It counts as biochemical.

For assay [4], the target named is T3, MaArr. Nature of the assay: fluorescent NAD+ conversion assay. The format is biochemical. This is another data set of the same source.
The target in the next assay is PARP2 (Homo sapiens, UniProt Q9UGN5). Nature of the assay: human ADP-ribosyltransferase activity panel. It counts as biochemical.
The target in assay [5] is T1, PaArr. The assay can be described thus: X-ray crystal structure, […] Å. The format is binding. The settings on record: crystal with 1 mM rifampicin; an additional rifampicin molecule at crystal contacts, likely artifact.

For `Nc1nc2ccc(Cl)cc2c(O)c1-c1ccccc1` [compound 1], the inhibition at 100 µM against PaArr [1] and at MaArr [2] was under 50% each time. Further, the IC50 on MsArr is 1300 nM.
Turning to `NS(=O)(=O)c1ccc(-c2nc3ccccc3c(=O)[nH]2)cc1` [compound 2], the IC50 in the assay on SmArr was 10000 to 100000 nM; on PaArr [3] it was 10000 to 100000 nM; on TNKS2, “showed strong inhibition of TNKS2 and PARP2 as expected (Figure 3E)”; against MaArr [4], 10000 to 100000 nM; at MsArr, 2000 nM; against PARP2, “showed strong inhibition of TNKS2 and PARP2 as expected (Figure 3E)”.
With `O=c1c(O)c(-c2cc(O)c(O)c(O)c2)oc2cc(O)cc(O)c12` [compound 7], the IC50 with SmArr was 1700 nM; on PaArr [3], 470 nM.
For the compound `Oc1ccc(O)c2c1sc1nncn12` [compound 13, 13], the midpoint of inhibition in the assay on SmArr, the IC50, lay at 1200 nM.
As for `CO[C@H]1/C=C/O[C@@]2(C)Oc3c(C)c(O)c4c(O)c(c(/C=N/N5CCN(C)CC5)c(O)c4c3C2=O)NC(=O)/C(C)=C\C=C\[C@H](C)[C@H](O)[C@@H](C)[C@@H](O)[C@@H](C)[C@H](OC(C)=O)[C@@H]1C` [rifampicin], on PaArr [5], the “X-ray crystal structure, 1.4 Å” value is “In the crystal structure of PaArr, an additional rifampicin molecule stacks against these two areas”.
